# Experimental data from publication PMC8270334, “Design, Sustainable Synthesis and Biological Evaluation of a Novel Dual α2A/5-HT7 Receptor Antagonist with Antidepressant-Like Properties” (Molecules, 2021).
# Target: T1, 5-HT7R (Homo sapiens, UniProt P34969)
# T1 construct: expressed in transfected cells; host or cells: HEK-293 (prepared with Lipofectamine 2000, G418 selection)
# Assay: intrinsic activity at 5-HT7R, LANCE cAMP assay in HEK-293 cells, 5-CT stimulated
# Format: cell-based
# Conditions: read-out: 5-HT7 Kb
# Description: Cells (prepared with the use of Lipofectamine 2000) were maintained at 37 °C in a humidified atmosphere with 5% CO2 and grown in Dulbeco’s Modifier Eagle Medium containing 10% dialyzed fetal bovine serum and […] G418 sulphate. For functional experiments, cells were subcultured in 25 cm diameter dishes, grown to 90% confluence, washed twice with pre-warmed to 37 °C phosphate buffered saline (PBS) and were centrifuged for 5 min (160× g). The supernatant was aspirated, then the cell pellet was resuspended in stimulation buffer (1 × HBSS, 5 mM HEPES, 0.5 mM IBMX, 0.1% BSA). The cAMP level was measured using the LANCE cAMP detection kit (PerkinElmer), according to the manufacturer’s directions. […] Cells (5 µL) were incubated with compounds (5 µL) for 30 min at room temperature in 384-well white opaque microtiter plate. After incubation, the reaction was stopped, and cells were lysed by the addition of 10 µL working solution (5 µL Eu-cAMP and 5 µL ULight-anti-cAMP). The assay plate was incubated for 1 h at room temperature. Time-resolved fluorescence resonance energy transfer (TR-FRET) was detected by an Infinite M1000 Pro (Tecan) using instrument settings from LANCE cAMP detection kit manual. Kb values were calculated from the Cheng–Prusoff equation specific for the analysis of functional inhibition curves: Kb = IC50/(1+A/EC50) where A is the agonist concentration, IC50 is the concentration of the antagonist producing a 50% reduction in the response to the agonist, and EC50 is the agonist concentration which causes half of the maximal response.
# T1 sequence (P34969 1-432): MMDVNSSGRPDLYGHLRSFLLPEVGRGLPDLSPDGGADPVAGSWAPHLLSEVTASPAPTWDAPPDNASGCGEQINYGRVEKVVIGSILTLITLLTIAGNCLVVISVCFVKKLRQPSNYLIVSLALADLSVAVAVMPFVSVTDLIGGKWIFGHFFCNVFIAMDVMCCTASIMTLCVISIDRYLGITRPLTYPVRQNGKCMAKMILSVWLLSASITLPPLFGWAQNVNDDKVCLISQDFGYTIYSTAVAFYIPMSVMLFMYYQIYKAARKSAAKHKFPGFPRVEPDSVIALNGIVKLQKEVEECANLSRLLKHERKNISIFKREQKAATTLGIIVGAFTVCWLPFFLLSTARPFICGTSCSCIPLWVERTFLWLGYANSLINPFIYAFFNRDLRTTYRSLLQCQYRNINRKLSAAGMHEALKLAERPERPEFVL
row,Structure (SMILES),Kb [nM]
1,"CC1(C)Cc2cccc(OCCN3CCC(NS(=O)(=O)c4cc(Cl)ccc4F)CC3)c2O1 [Compound 8, 5-Chloro-2-fluoro-N-{1-[2-(2,2-dimethyl-2,3-dihydrobenzofuran-7-yloxy)ethyl]piperidin-4-yl}benzenesulfonamide]",141 ± 43
2,"CC1(C)Cc2cccc(OCCN3CCC(NS(=O)(=O)c4ccc(F)cc4)CC3)c2O1 [Compound 6, 4-Fluoro-N-{1-[2-(2,2-dimethyl-2,3-dihydrobenzofuran-7-yloxy)ethyl]piperidin-4-yl} benzenesulfonamide]",186 ± 37
3,"CC1(C)Cc2cccc(OCCN3CCC(NS(=O)(=O)c4cncc5ccccc45)CC3)c2O1 [Compound 13, 4-Isoquinoline-N-{1-[2-(2,2-dimethyl-2,3-dihydrobenzofuran-7-yloxy)ethyl]piperidin-4-yl}sulfonamide]",155 ± 30
